Experimental data taken from patent US20250129067A1 (Progentos Therapeutics, Inc., priority 2021, published 2025).
pIC50: −log10 of the molar value. “And” between values parts separate entries of the source, which are not always exact repeats. Identical values can stand only once. Like-named read-outs stand apart in the source and are kept apart here.

Columns and labels:
[1] = test system: GPR17+ cells (newly differentiated oligodendrocytes); assay: In vivo OPC differentiation, GPR17+ cells in brain
[2] = biological target: PDGFRα (Homo sapiens (Human), UniProt P16234); assay: PDGFRα kinase enzyme assay (Promega PDGFRα Kinase Enzyme System, ADP-Glo); format: biochemical; details: 150 uM ATP
PDGFRα, sequence (P16234 24-1089): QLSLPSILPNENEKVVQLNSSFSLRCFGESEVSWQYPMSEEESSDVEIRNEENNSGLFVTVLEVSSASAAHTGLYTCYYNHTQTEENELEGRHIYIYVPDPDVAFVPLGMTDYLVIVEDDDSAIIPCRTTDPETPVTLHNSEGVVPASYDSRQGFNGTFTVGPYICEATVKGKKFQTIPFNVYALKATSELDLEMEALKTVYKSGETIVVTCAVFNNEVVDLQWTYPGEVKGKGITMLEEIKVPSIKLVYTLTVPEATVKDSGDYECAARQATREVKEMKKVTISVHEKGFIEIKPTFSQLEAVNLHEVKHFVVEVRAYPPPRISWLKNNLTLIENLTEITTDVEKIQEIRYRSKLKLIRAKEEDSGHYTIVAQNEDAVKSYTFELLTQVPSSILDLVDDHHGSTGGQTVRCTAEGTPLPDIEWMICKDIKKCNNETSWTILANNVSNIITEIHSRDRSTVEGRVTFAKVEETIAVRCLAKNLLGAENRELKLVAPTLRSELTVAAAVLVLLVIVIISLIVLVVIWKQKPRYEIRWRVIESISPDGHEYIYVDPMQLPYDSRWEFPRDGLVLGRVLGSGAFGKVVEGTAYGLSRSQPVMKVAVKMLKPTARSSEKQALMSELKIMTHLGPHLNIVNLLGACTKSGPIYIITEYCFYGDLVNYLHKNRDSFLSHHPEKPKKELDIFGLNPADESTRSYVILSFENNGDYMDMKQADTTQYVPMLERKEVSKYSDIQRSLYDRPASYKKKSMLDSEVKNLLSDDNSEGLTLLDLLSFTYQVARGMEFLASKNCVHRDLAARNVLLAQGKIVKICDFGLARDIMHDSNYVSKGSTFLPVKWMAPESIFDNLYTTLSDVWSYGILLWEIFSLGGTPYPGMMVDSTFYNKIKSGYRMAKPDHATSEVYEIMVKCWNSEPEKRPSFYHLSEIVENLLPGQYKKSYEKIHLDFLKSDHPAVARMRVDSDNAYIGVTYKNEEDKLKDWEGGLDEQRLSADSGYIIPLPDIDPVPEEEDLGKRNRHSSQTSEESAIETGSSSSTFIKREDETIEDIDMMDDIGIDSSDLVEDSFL
How it was run: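 Purified PDGFRα protein (20 ng) reacted with test compound per the Promega kinase system protocol. ADP formed was measured by ADP-Glo luminescence against a standard curve, giving IC50.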

[3] = test system: Oligodendrocyte progenitor cells (OPCs); assay: In vitro OPC differentiation assay, GPR17 expression (immunocytochemistry); details: 72 hours, fold change over vehicle; for GPR17 Fold Induction (Over Vehicle; 3 μM): 3 μM (10× concentration, final 0.3 μM); for GPR17 Fold Induction (Over Vehicle; 5 μM): 5 μM (10× concentration, final 0.5 μM)
[4] = test system: Oligodendrocyte progenitor cells (OPCs); assay: In vitro OPC differentiation assay, MBP expression (immunocytochemistry); details: 72 hours of treatment; fold change over vehicle
Procedure: Cortices from postnatal day (P) 1-3 rats were dissected and collected into ice cold Hank's Balanced Salt Solution (HBSS). […] Briefly, the cortical cell suspension was centrifuged and washed with buffer (0.5% BSA in PBS) and labeled with Anti-A2B5 MicroBeads (10 μL beads per 1×10^7 cells) for 15 minutes at 4° C. Following the incubation, cells were washed once with BSA buffer to remove unlabeled beads. A2B^5 positive cells were eluted on the column using the AutoMACS® (Miltenyi, as per manufacturer's protocol using “possel-s” program). Eluted cells were further washed twice with OPC growth media. Cell count was performed using Countess III cell counter (ThermoFisher; AMQAX2000) and cells were plated.
A2B5+ OPCs were plated in poly-d-lysine (PDL) coated T75 flask at a density of ˜3 million cells per flask. […] TrypLE was normalized by adding 10 mL growth media and cells were centrifuged at 1400 rpm for 10 minutes. […] The plates were allowed to sit at room temperature for 15 minutes to ensure proper dispersion of cells in a well. The plates were then transferred to the incubator (37° C.; 5% CO2).
Cells were then incubated for 72 hours at 37° C., 5% CO2 before immunostaining for MBP marker expression.
Following 72 hours of treatment, cells were fixed with 4% paraformaldehyde for 15 minutes then washed three times in DPBS. Prior to staining, cells were blocked for 15 minutes in 10% normal goat serum containing 1% BSA and 0.1% Triton X-100 in DPBS. Primary antibody (MBP @ 1:2000; Abcam AB7349) was applied to cells overnight at 4° C. in incubation solution containing 1% normal goat serum, 1% BSA, and 0.1% Triton X-100 in DPBS.
The number of differentiated MBP+ cells was normalized to the total nuclei count and percent differentiated MBP+ cells were reported.

[5] = Mus musculus, po, 24 h, read-out: GPR17 Fold Induction (Over Vehicle)
[6] = 11-point dose response, 10,000 nM to 0.169 nM, BLQ = below limit of quantitation, read-out: IC50 Values on PDGFRα Kinase Inhibition, IC50
[7] = 20 ng purified PDGFRα, Poly (Glu4Tyr1) substrate, two hours, 11-point dose response, read-out: IC50 Values on PDGFRα Kinase Inhibition

| SMILES | pIC50 [2, 6] | GPR17 Fold Induction (Over Vehicle; 3 μM) [3] | MBP Fold Induction (Over vehicle) [4] | IC50 Values on PDGFRα Kinase Inhibition, IC50 (nM) ([2]; 11-point dose response, 10,000 nM to 0.169 nM, BLQ = below limit of quantitation) | pIC50 [2, 7] | GPR17 Fold Induction (Over Vehicle; 5 μM) [3] | GPR17 Fold Induction (Over Vehicle) ([1]; dose not assignable from Table 10, GPR17+ cells in brain, mice) [fold] | fold induction at 10 mg/kg [1, 5] | fold induction at 3 mg/kg [1, 5] | fold induction at 6 mg/kg [1, 5] | fold induction at 3.3 mg/kg [1, 5] | fold induction at 30 mg/kg [1, 5] |
| --- | --- | --- | --- | --- | --- | --- | --- | --- | --- | --- | --- | --- |
| Cn1cc(-c2ccc3c(N4CCN(c5ncc(Cc6ccncc6)cn5)CC4)cnn3c2)cn1 [Compound 179, 6-(1-methyl-1H-pyrazol-4-yl)-3-(4-(5-(pyridin-4-ylmethyl)pyrimidin-2-yl)piperazin-1-yl)pyrazolo[1,5-a]pyridine] | 6.18 | 5.37 | 10.12 | – | – | – | – | 8.36 | – | – | – | – |
| Cc1ccc([C@@H](C)OC(=O)N2CCN(c3cnn4cc(-c5cnn(C)c5)ccc34)CC2)cc1 [Compound 267, (1R)-1-(4-methylphenyl)ethyl 4-[6-(1-methyl-1H-pyrazol-4-yl)pyrazolo[1,5-a]pyridin-3-yl]piperazine-1-carboxylate] | – | 5.62 | 2.33 | BLQ | – | – | – | – | 5.75 | 7.52 | – | – |
| Cn1cc(-c2ccc3c(N4CCN(C(=O)OCc5ccccc5)CC4)cnn3c2)cn1 [Compound 13, Benzyl 4-[6-(1-methyl-1H-pyrazol-4-yl)pyrazolo[1,5-a]pyridin-3-yl]piperazine-1-carboxylate] | 6.38 | 8.42 | 10.24 | – | > 6.00 | 4.31 | – | – | – | – | 1.85 | – |
| Cn1cc(-c2ccc3c(N4CCN(c5ncc(Cc6ccc(F)cc6)cn5)CC4)cnn3c2)cn1 [Compound 66, 3-{4-[5-(4-fluorobenzyl)pyrimidin-2-yl]piperazin-1-yl}-6-(1-methyl-1H-pyrazol-4-yl)pyrazolo[1,5-a]pyridine] | 6.16 | 5.07 | 26.50 | – | – | – | – | – | 10.4 | – | – | – |
| Cn1cc(-c2ccn3c(N4CCN(c5ncc(Cc6ccccc6)cn5)CC4)cnc3c2)cn1 [Compound 23, 3-[4-(5-benzylpyrimidin-2-yl)piperazin-1-yl]-7-(1-methyl-1H-pyrazol-4-yl)imidazo[1,2-a]pyridine] | 6.37 | 9.53 | 2.1 | – | – | 3.98 | – | – | – | – | – | 14.8 |
| CC1CC(OC(=O)N2CCN(c3cnn4cc(-c5cnn(C)c5)ccc34)CC2)C1 (stereo not drawn) [Compound 309, 3 methylcyclobutyl 4-[6-(1-methyl-1H-pyrazol-4-yl)pyrazolo[1,5-a]pyridin-3-yl]piperazine-1-carboxylate] | 6.08 | 6.67 | 5.13 | – | – | – | – | 1.2 | – | – | – | – |
| Cn1cc(-c2ccc3c(N4CCN(c5ncc(Cc6cccs6)cn5)CC4)cnn3c2)cn1 [Compound 178, 6-(1-methyl-1H-pyrazol-4-yl)-3-(4-(5-(thiophen-2-ylmethyl)pyrimidin-2-yl)piperazin-1-yl)pyrazolo[1,5-a]pyridine] | 5.68 | 5.98 | 7.25 | – | – | – | – | – | – | – | – | 0.96 |
| C[C@H](OC(=O)N1CCN(c2cnn3cc(-c4cnn(C)c4)ccc23)CC1)c1ccc(Cl)cc1 [Compound 271, (1S)-1-(4-chlorophenyl)ethyl 4-[6-(1-methyl-1H-pyrazol-4-yl)pyrazolo[1,5-a]pyridin-3-yl]piperazine-1-carboxylate] | 5.83 | 6.67 | 2.21 | – | – | – | – | – | 0.83 | – | – | – |
| Cn1cc(-c2ccc3c(N4CCN(c5ncc(Cc6cccnc6)cn5)CC4)cnn3c2)cn1 [Compound 251, 6-(1-methyl-1H-pyrazol-4-yl)-3-{4-[5-(pyridin-3-ylmethyl)pyrimidin-2-yl]piperazin-1-yl}pyrazolo[1,5-a]pyridine] | 5.94 | 4.97 | 9.20 | – | – | – | – | – | 1.22 | – | – | – |
| CCC(CC)Cc1cnc(N2CCN(c3cnn4cc(-c5cnn(C)c5)ccc34)CC2)nc1 [Compound 153, 3-(4-(5-(2-ethylbutyl)pyrimidin-2-yl)piperazin-1-yl)-6-(1-methyl-1H-pyrazol-4-yl)pyrazolo[1,5-a]pyridine] | 5.86 | 6.37 | 4.86 | – | – | – | – | – | 1.58 | – | – | – |
| CC(C)(C)OC(=O)N1CCN(c2cnn3cc(-c4cnn(CCCN5CCOCC5)c4)ccc23)CC1 [Compound 233, tert-butyl 4-(6-(1-(3-morpholinopropyl)-1H-pyrazol-4-yl)pyrazolo[1,5-a]pyridin-3-yl)piperazine-1-carboxylate] | 6.16 | 9.27 | 46.15 | – | – | – | – | 2.16 | – | – | – | – |

Further lines, with some results ahead:

| pIC50 [2, 6] | GPR17 Fold Induction (Over Vehicle; 3 μM) [3] | MBP Fold Induction (Over vehicle) [4] | IC50 Values on PDGFRα Kinase Inhibition, IC50 (nM) ([2]; 11-point dose response, 10,000 nM to 0.169 nM, BLQ = below limit of quantitation) | pIC50 [2, 7] | GPR17 Fold Induction (Over Vehicle; 5 μM) [3] | GPR17 Fold Induction (Over Vehicle) ([1]; dose not assignable from Table 10, GPR17+ cells in brain, mice) [fold] | SMILES | fold induction at 10 mg/kg [1, 5] | fold induction at 3 mg/kg [1, 5] | fold induction at 6 mg/kg [1, 5] | fold induction at 3.3 mg/kg [1, 5] | fold induction at 30 mg/kg [1, 5] |
| --- | --- | --- | --- | --- | --- | --- | --- | --- | --- | --- | --- | --- |
| 7.31 | 5.01 and 9.78 | 24.95 | – | – | – | – | C[C@@H](NC(=O)N1CCN(c2cnn3cc(-c4cnn(C)c4)ccc23)CC1)c1ccc(Cl)cc1 [Compound 274, N-[(1R)-1-(4-chlorophenyl)ethyl]-4-[6-(1-methyl-1H-pyrazol-4-yl)pyrazolo[1,5-a]pyridin-3-yl]piperazine-1-carboxamide] | – | 6.67 | – | – | – |
| 6.42 | 6.26 | 11.66 | – | – | – | – | C[C@@H](OC(=O)N1CCN(c2cnn3cc(-c4cnn(C)c4)ccc23)CC1)c1ccccn1 [Compound 260, (1R)-1-pyridin-2-ylethyl 4-[6-(1-methyl-1H-pyrazol-4-yl)pyrazolo[1,5-a]pyridin-3-yl]piperazine-1-carboxylate] | 2.79 | – | – | – | – |
| 6.51 | 7.16 | 11.56 | – | – | – | – | CC(C)n1cc(-c2ccc3c(N4CCN(C(=O)OC(C)(C)C)CC4)cnn3c2)cn1 [Compound 234, tert-butyl 4-(6-(1-isopropyl-1H-pyrazol-4-yl)pyrazolo[1,5-a]pyridin-3-yl)piperazine-1-carboxylate] | – | 1.15 | – | – | – |
| 6.46 | 5.84 | 48.00 | – | – | – | – | Cn1cc(-c2ccc3c(N4CCN(C(=O)N5CCCCC5)CC4)cnn3c2)cn1 [Compound 163, (4-(6-(1-methyl-1H-pyrazol-4-yl)pyrazolo[1,5-a]pyridin-3-yl)piperazin-1-yl)(piperidin-1-yl)methanone] | – | 0.95 | – | – | – |
| 6.49 | 10.21 | 1.93 | – | > 6.00 | 4.22 | – | Cn1cc(-c2ccc3c(N4CCN(C(=O)OC(C)(C)C)CC4)cnn3c2)cn1 [Compound 11, tert-butyl 4-[6-(1-methyl-1H-pyrazol-4-yl)pyrazolo[1,5-a]pyridin-3-yl]piperazine-1-carboxylate] | 9.93 | – | – | 2.14 | – |
| 6.91 | 6.86 | 3.97 | – | – | – | 11.15 | Cn1cc(-c2ccc3c(N4CCN(c5ncc(C(C)(O)c6ccc(F)cc6)cn5)CC4)cnn3c2)cn1 (stereo not drawn) [Compound 46, 1-(4-fluorophenyl)-1-(2-{4-[6-(1-methyl-1H-pyrazol-4-yl)pyrazolo[1,5-a]pyridin-3-yl]piperazin-1-yl}pyrimidin-5-yl)ethanol] | – | – | – | – | – |
